# Reference: patent US7858610B2, “Preventive and/or remedy for lower urinary tract diseases containing EP4 agonist” (Ono Pharmaceutical Co., Ltd., priority 2004, dated 2010)
# Test system: model of cyclophosphamide-induced cystitis in rats
# Assay: Cystometry in the model of cyclophosphamide-induced cystitis in rats
# Assay type: in vivo, rat
# Conditions: for decrease of the bladder compliance induced by cyclophosphamide: bladder capacity divided by voiding pressure
# Method: Female Wistar rats (around 9 weeks old) were anesthetized with sodium pentobarbital (40 mg/kg, i.p.). After median incision of the hypogastrium, the top of bladder was incised. A catheter for use in cystometry was filled with physiological saline and then was inserted through the top hole into bladder. The other end of the catheter was fixed subcutaneously in the dorsal part. 0.1 mL Vicillin S500 (Meiji Seika Kaisha, Ltd.; 100 mg titers/mL distilled water/rat) was injected into the buttock muscle. Then, the rats were fed for 6 days or more, and subsequently subjected to the following treatment.
# The model of cyclophosphamide-induced cystitis was prepared by a single dose intraperitoneal administration of cyclophosphamide (Sigma; 150 mg/kg). Distilled water is administered intraperitoneally for the control group.
# The test compound of each dose was administrated orally 30 minutes before the treatment of cyclophosphamide, and 4, 20, 30 and 45 hours after the treatment of cyclophosphamide. The solvent group (hereinafter, it may be referred to as vehicle.) was administrated distilled water which is the solvent of the test compound. The following cystometry was carried out 48 hours after the treatment of cyclophosphamide.
# The rats anesthetized with diethyl ether were kept in ballman cage. The tip of the indwelling catheter for use in measurement of voiding pressure was connected through a three-way valve. Another end of the three-way valve was connected to a pressure transducer, while the other end was connected to a syringe for intravesical injection which was mounted on an infusion pump. A signal of voiding pressure was recorded using an amp recorder of strain pressure
# After awaking from anesthesia, saline was injected into the bladder of the rats at a rate of 2.85 mL/h. After the pattern of the micturition reflex was stable, the residual urine was removed. Afterwards, saline was injected again into the bladder at a rate of 2.85 mL/h, and the voiding pressure and the urination interval were measured. The bladder capacity was calculated from the urination interval. The bladder compliance was calculated by dividing the bladder capacity by the voiding pressure.
# [1] = 1000 μg/kg orally, cyclophosphamide-induced cystitis, female Wistar rats
Compound,"decrease of the bladder compliance induced by cyclophosphamide (300 μg/kg orally, 30 min before and 4, 20, 30 and 45 h after cyclophosphamide (150 mg/kg i.p.), cystometry 48 h after, FIG. 2)","decrease of the bladder capacity induced by cyclophosphamide (300 μg/kg orally, 30 min before and 4, 20, 30 and 45 h after cyclophosphamide (150 mg/kg i.p.), cystometry 48 h after, female Wistar rats, FIG. 1)","voiding pressure (oral administration, regardless of the presence of the cyclophosphamide treatment, FIG. 3)",decrease of the bladder capacity induced by cyclophosphamide [1],decrease of the bladder compliance induced by cyclophosphamide [1]
"O=C(O)CCCSCCN1C(=O)CC[C@@H]1/C=C/[C@@H](O)Cc1ccc(F)cc1 [compound 1, 4-[(2-{(2R)-2-[(1E,3S)-4-(4-fluorophenyl)-3-hydroxybut-1-enyl]-5-oxopyrrolidin-1-yl}ethyl)sulfanyl]butanoic acid]",improved,improved,decreased,–,–
"methyl 4-{[2-((1R,2R,3R)-3-hydroxy-2-{(1E,3S)-3-hydroxy-4-[3-(methoxymethyl)phenyl]but-1-enyl}-5-oxocyclopenty)ethyl]sulfanyl}butanoate α-cyclodextrin clathrate [compound 2]",–,–,–,improved,improved
